Reference: patent publication US20200061062A1, “INHIBITORS OF HUMAN PHOSPHATIDYLINOSITOL 3-KINASE DELTA” (ICOS Corporation, priority 2000, published 2020)
Where two headings read alike, the source gives them in different places.

Legend:
[1] = target: T1, PI3Kα (Homo sapiens, UniProt P42336); assay: Biochemical assay of PI3K potency and selectivity using 20 μM ATP, Alpha; conditions: for Alpha/Delta Ratio: ratio of IC50 values, > = hypothetical ratio with 100 μM substituted for the missing IC50; for IC50: read-out: Alpha IC50
T1 construct: His tag (pFastbac HTb vector) (N); FLAG; made in house; host or cells: Sf21 insect cells (baculovirus)
T1 sequence (P42336 whole entry): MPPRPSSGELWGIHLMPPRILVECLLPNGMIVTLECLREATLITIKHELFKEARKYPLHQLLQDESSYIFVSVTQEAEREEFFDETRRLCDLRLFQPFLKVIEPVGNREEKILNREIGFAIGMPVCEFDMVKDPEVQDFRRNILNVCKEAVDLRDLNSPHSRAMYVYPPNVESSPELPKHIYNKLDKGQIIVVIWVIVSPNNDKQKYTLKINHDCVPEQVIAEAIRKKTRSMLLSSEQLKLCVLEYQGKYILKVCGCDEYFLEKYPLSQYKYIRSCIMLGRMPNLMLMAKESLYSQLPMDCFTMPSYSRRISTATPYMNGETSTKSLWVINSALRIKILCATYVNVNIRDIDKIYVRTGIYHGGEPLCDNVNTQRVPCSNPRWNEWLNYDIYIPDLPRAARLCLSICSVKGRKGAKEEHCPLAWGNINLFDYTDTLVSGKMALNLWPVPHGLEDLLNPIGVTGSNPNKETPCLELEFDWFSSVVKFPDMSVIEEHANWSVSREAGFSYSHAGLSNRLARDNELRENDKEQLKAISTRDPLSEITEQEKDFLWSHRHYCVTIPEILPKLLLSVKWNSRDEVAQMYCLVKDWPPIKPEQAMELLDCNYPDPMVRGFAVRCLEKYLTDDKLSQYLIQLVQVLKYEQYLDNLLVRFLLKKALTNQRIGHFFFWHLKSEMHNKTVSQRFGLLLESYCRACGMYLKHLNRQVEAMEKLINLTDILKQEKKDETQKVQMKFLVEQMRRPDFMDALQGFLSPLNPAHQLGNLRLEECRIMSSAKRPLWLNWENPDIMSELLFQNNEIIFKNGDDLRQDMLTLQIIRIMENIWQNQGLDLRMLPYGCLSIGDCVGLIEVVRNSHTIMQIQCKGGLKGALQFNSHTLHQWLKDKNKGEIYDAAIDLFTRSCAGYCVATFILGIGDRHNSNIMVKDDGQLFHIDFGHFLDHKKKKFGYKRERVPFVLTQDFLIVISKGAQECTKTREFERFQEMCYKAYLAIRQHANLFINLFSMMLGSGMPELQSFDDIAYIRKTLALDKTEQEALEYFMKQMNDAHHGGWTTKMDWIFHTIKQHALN
T1 sequence (P27986 whole entry partner): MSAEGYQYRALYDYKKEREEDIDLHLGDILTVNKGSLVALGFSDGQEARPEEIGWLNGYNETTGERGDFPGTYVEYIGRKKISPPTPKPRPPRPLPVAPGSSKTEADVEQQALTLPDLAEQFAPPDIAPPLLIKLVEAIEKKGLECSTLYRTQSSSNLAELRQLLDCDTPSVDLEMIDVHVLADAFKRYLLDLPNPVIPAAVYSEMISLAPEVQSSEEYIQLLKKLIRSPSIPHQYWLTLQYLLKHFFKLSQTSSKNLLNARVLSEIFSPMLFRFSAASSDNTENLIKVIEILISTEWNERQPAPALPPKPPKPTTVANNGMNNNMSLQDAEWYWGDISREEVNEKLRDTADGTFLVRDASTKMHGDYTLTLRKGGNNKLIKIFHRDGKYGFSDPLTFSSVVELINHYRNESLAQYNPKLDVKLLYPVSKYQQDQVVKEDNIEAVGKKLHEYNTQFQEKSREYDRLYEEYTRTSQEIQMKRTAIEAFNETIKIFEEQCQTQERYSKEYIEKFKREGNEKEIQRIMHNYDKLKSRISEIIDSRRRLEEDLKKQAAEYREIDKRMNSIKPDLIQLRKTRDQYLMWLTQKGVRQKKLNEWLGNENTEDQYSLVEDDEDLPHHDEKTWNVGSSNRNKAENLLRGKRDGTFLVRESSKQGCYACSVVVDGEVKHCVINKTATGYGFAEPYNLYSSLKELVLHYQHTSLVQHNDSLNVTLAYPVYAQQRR
Text: (§1) Recombinant PI3K heterodimeric complexes consisting of a p110 catalytic subunit and a p85 regulatory subunit were overexpressed using the BAC-TO-BAC® HT baculovirus expression system (GIBCO/BRL), and then purified for use in biochemical assays. The four Class I PI 3-kinases were cloned into baculovirus vectors as follows: […]

[2] = target: PI3Kδ (Homo sapiens, UniProt O00329, S253N); assay: Biochemical assay of PI3K potency and selectivity using 20 μM ATP, Delta; design: His tag (pFastbac HTb vector) (N); FLAG; made in house; host or cells: Sf21 insect cells (baculovirus); conditions: 20 μM ATP; read-out: Delta IC50
PI3Kδ, sequence (O00329 whole entry S253N): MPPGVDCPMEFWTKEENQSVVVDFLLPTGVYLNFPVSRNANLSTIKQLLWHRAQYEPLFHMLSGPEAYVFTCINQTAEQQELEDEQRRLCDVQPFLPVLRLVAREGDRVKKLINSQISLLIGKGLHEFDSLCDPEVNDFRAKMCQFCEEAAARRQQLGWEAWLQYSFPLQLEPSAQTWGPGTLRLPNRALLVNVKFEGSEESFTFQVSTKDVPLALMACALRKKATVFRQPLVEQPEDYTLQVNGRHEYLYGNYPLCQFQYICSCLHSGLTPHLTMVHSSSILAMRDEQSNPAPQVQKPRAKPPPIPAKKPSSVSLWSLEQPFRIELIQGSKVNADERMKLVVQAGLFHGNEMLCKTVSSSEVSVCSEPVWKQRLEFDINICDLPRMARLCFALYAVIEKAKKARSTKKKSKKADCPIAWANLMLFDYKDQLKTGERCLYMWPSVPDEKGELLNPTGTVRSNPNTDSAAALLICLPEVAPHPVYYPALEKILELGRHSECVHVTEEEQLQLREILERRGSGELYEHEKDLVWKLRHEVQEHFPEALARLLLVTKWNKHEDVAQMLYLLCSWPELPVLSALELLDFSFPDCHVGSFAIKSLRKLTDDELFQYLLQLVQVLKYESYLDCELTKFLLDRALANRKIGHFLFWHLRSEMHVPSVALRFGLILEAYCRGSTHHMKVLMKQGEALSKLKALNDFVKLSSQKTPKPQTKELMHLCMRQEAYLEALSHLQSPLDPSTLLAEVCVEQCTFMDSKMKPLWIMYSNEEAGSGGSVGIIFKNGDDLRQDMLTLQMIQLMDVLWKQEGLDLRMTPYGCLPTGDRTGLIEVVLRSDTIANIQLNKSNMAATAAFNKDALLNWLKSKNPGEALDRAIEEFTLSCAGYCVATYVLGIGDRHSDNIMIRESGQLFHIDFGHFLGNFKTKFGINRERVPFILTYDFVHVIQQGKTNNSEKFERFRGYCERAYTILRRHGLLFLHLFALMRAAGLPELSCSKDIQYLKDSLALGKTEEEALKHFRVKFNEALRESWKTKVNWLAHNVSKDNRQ
PI3Kδ, sequence (P27986 whole entry partner): as the sequence (P27986 whole entry partner) above
Text: as §1

[3] = target: T2, PI3Kβ (Homo sapiens, UniProt P42338); assay: Biochemical assay of PI3K potency and selectivity using 20 μM ATP, Beta; conditions: 20 μM ATP; for Beta/Delta Ratio: ratio of IC50 values, > = hypothetical ratio with 100 μM substituted for the missing IC50; for IC50: read-out: Beta IC50; for remaining activity at 100 µM: read-out: Beta: percent activity remaining at 100 μM, 100 μM compound did not inhibit by at least 50%
T2 construct: His tag (pFastbac HTa vector) (N); FLAG (N); made in house; host or cells: Sf21 insect cells (baculovirus)
T2 sequence (P42338 whole entry): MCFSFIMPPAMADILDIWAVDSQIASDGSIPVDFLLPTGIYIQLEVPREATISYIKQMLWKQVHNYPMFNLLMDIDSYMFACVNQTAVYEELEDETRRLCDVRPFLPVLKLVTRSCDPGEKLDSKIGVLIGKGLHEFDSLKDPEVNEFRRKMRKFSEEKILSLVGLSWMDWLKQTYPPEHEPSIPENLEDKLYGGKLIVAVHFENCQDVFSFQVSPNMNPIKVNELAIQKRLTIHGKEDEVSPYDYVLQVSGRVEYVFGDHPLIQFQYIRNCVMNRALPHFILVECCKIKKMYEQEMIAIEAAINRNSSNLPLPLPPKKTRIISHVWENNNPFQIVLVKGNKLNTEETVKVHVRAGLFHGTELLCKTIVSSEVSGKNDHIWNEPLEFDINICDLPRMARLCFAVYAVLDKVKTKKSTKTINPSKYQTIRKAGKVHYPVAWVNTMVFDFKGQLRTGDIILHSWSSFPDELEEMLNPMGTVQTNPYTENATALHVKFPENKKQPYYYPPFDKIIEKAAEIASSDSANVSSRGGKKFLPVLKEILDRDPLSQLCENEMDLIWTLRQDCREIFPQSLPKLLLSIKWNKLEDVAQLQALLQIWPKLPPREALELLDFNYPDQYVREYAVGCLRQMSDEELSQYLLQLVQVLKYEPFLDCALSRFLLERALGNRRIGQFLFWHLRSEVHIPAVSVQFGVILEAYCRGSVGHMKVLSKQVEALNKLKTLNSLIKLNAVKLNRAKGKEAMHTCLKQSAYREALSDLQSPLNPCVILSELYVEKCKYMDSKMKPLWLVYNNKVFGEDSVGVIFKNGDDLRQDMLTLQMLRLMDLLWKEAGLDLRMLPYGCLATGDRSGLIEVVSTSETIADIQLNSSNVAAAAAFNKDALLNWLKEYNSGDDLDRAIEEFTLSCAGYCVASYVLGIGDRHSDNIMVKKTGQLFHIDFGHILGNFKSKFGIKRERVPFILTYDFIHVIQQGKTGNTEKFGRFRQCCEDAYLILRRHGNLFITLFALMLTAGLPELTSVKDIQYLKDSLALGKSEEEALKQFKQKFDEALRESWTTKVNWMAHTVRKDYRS
T2 sequence (P27986 whole entry partner): as the sequence (P27986 whole entry partner) above
Procedure: Recombinant PI3K heterodimeric complexes consisting of a p110 catalytic subunit and a p85 regulatory subunit were overexpressed using the BAC-TO-BAC® HT baculovirus expression system (GIBCO/BRL), and then purified for use in biochemical assays. The four Class I PI 3-kinases were cloned into baculovirus vectors as follows:
The 3× substrate for the HTS contained 0.6 mM Na2ATP, 0.10 mCi/mL γ-[^32P]ATP (NEN, Pittsburgh, Pa.), 6 μM PIP2/PS liposomes (Avanti Polar Lipids, Inc., […].), in 20 mM HEPES, pH 7.4.

[4] = read-out: percent activity remaining at 100 μM, 20 μM ATP, 100 μM compound did not inhibit by at least 50%

Row | SMILES | melting point | Alpha/Delta Ratio ([1]; 20 μM ATP) | remaining activity at 100 µM [1, 4] [%] | IC50 [2] [µM] | Beta/Delta Ratio [3] | IC50 [3] [µM] | remaining activity at 100 µM [3] [%] | IC50 ([1]; 20 μM ATP) [µM] | Alpha IC50 column: percent activity remaining at 100 μM ([1]; 20 μM ATP, 100 μM compound did not inhibit by at least 50%, 100 µM) [%] | remaining activity at 100 µM ([1]; read-out: percent activity remaining at 100 μM) [%]
1 | Cc1ccccc1-n1c(Cn2cnc3c(N)ncnc32)nc2cccc(Cl)c2c1=O | 262 to 266.5 °C |  |  |  |  |  |  |  |  | 
2 | COc1cc2nc(Cn3cnc4c(N)ncnc43)n(-c3ccccc3Cl)c(=O)c2cc1OC [Compound D-001, 2-(6-Aminopurin-9-ylmethyl)-3-(2-chlorophenyl)-6,7-dimethoxy-3H-quinazolin-4-one] | 281.5 to 282.7 °C (dec.) | >1.5 | 83 | 68 | 0.66 | 45 |  |  |  | 
3 | Nc1ncnc2c1ncn2Cc1nc2ccc(Br)cc2c(=O)n1-c1ccccc1Cl [Compound D-002, 2-(6-Aminopurin-o-ylmethyl)-6-bromo-3-(2-chlorophenyl)-3H-quinazolin-4-one] | 284.2 to 284.7 °C (dec.) | >2.3 | 88 | 44 | >2.3 |  | 78 |  |  | 
4 | COc1ccccc1-n1c(Cn2cnc3c(N)ncnc32)nc2cccc(Cl)c2c1=O [Compound D-033, 2-(6-Aminopurin-9-ylmethyl)-5-chloro-3-(2-methoxyphenyl)-3H-quinazolin-4-one] | 257 to 257.1 °C |  |  |  |  |  |  |  |  | 
5 | COc1cccc(-n2c(CSc3ncnc4[nH]cnc34)nc3ccccc3c2=O)c1 [Compound D-040, 3-(3-methoxyphenyl)-2-(9H-purin-6-ylsulfanylmethyl)-3H-quinazolin-4-one] |  | >61 | 77 | 1.7 | >61 |  | 64 |  |  | 
6 | O=c1c2ccccc2nc(CSc2ncnc3[nH]cnc23)n1-c1cccc(Cl)c1 [Compound D-041, 3-(3-chlorophenyl)-2-(9H-purin-6-ylsulfanylmethyl)-3H-quinazolin-4-one] |  | >25 | 67 | 4 | >25 |  | 65 |  |  | 
7 | O=c1c2ccccc2nc(CSc2ncnc3[nH]cnc23)n1-c1ccncc1 [Compound D-042, 2-(9H-purin-6-ylsulfanylmethyl)-3-pyridin-4-yl-3H-quinazolin-4-one] |  | >32 | 70 | 3 | 8 | 25 |  |  |  | 
8 | CC(=O)O.CN1CCN(n2c(CSc3ncnc4[nH]cnc34)nc3ccccc3c2=O)CC1 [Compound D-044, 3-(4-methylpiperazin-1-yl)-2-(9H-purin-6-ylsulfanylmethyl)-3H-quinazolin-4-one, acetate salt] |  | 25 |  | 4.2 | 15 | 61 |  | 105 |  | 
9 | COc1ccccc1-n1c(CSc2ncnc3[nH]cnc23)nc2ccccc2c1=O [Compound D-046, 3-(2-methoxyphenyl)-2-(9H-purin-6-ylsulfanylmethyl)-3H-quinazolin-4-one] |  | >11 |  |  | 11 |  |  |  | 64 | 
10 | CCCCn1c(Cn2cnc3c(N)ncnc32)nc2ccccc2c1=O [Compound D-050, 2-(6-aminopurin-9-ylmethyl)-3-butyl-3H-quinazolin-4-one] |  | >63 | 99 | 1.6 | 26 | 41 |  |  |  | 
11 | CC(=O)O.Nc1ncnc2c1ncn2Cc1nc2ccccc2c(=O)n1N1CCOCC1 [Compound D-051, 2-(6-aminopurin-9-ylmethyl)-3-morpholin-4-yl-3H-quinazolin-4-one, acetate salt] |  | >31 |  | 3.3 | >31 |  | 57 |  |  | 89
12 | O=c1c2ccccc2nc(CSc2ncnc3[nH]cnc23)n1-c1ccc(Cl)cc1 [Compound D-052, 3-(4-chlorophenyl)-2-(9H-purin-6-ylsulfanylmethyl)-3H-quinazolin-4-one] |  | 0.09 |  | 8 | >13 |  | 69 | 0.7 |  | 
